The values below come from patent publication US10265321B2, “Uses of salt-inducible kinase (SIK) inhibitors” (Dana-Farber Cancer Institute, Inc., priority 2014, dated 2019).

The target of one assay is T1, SIK3 (Homo sapiens, UniProt Q9Y2K2).
T1 construct: made in house
Description: Protein kinase assay ([γ-32P] ATP, phosphocellulose paper) against SIK3. It is filed as biochemical. As to conditions: for remaining activity at 0.1 µM / remaining activity at 1 µM: DMSO set to 100%; for remaining activity at 0.1 µM: read-out: Activity of protein kinase treated with 0.1 μM of I-1 (% control (DMSO)) SIK3; for remaining activity at 1 µM: read-out: Activity of protein kinase treated with 1 μM of I-1 (% control (DMSO)) SIK3; for IC50: read-out: Enzyme Inhibition IC50 SIK3. The protocol:
(§1) Bone marrow-derived DCs were differentiated from C57BL/6 bone marrow in the presence of GM-CSF-conditioned media. CD11c^+ CX3CR1^hi myeloid cells and CD11c^+ CX3CR1^− DCs were isolated from the small intestine lamina propria of Cx3cr1^eGFP/+ mice (12). Detection of cell-surface Thy1.1 expression on BMDCs from 10BiT reporter mice was conducted as described previously (24). Cell viability was estimated by change in total cellular ATP levels using CellTiterGlo assays (Promega). Preparation of recombinant SIK proteins and IC50 measurements were conducted as described previously (21). Total RNA was extracted using a NucleoSpin 96 RNA isolation kit (Macherey-Nagel) followed by cDNA synthesis and multiplex RT-PCR using a microfluidic dynamic array (Fluidigm). The concentrations of TNF-α, IL-6, IL-10, IL-12p40, IL-1β and RANTES in culture supernatants were detected using a FlexSet Cytometric bead array (BD Biosciences). Alternatively, IL-10 secretion was quantified using ELISA (BD Biosciences) or AlphaLISA (PerkinElmer) assays. NO production was estimated based on nitrate content in culture medium using the Greiss reagent.
In another set of experiments, the activities of the SIK inhibitors described herein against SIK were determined according to the methods reported in Hastie et al., Nature Protocols, 2006, 1, 968-971.
This buffer consisted of 50 mM Tris-HCl, pH 7.5, 0.1 mM EGTA, 1 mg ml^−1 bovine serum albumin and 0.1% (vol/vol) 2-mercaptoethanol.
An assay buffer of 500 mM Tris-HCl, pH 7.5, 1 mM EGTA, and 100 mM magnesium acetate was used for the protein kinase assay.
The specific activity of the [γ-^32P] ATP solution was 1×10^5 to 1×10^6 c.p.m. per nmol depending on what was needed to produce an optimal signal/noise ratio. Stocks of nonradioactive (“cold”) ATP were dissolved in 10 mM HEPES, and the pH of the resulting stock solutions was adjusted to 7.4. To measure the concentration of ATP, a sample of such a stock solution was diluted to 20 μM, and the absorbance of the diluted sample was measured at 259 nm. The absorbance of a 20-μM stock solution of ATP at 259 nm was about 0.31. The 1-mM solution of cold ATP was “spiked” with [γ-^32P] ATP to produce a radioactivity of 1×10^5 to 1×10^6 c.p.m. per nmol.
1) The number of assay samples needed was determined based on, e.g., the following considerations: (i) each condition was assayed in duplicate; (ii) two controls containing peptide or protein substrate and ATP but no SIK were included to assess contamination by any free ATP not incorporated into substrate, alongside two controls lacking a peptide or protein substrate but containing ATP and SIK to correct for any incorporation of phosphate into the kinase itself (e.g., autophosphorylation); and (iii) a maximum of 40 samples were assayed manually at one time by a single person. Microcentrifuge tubes were label distinctly and were placed on ice.
4) Dilute the SIK in enzyme dilution buffer and place on ice.
5) Pipette 5 j±l of 10× concentrated assay buffer, 5 j±l peptide or protein substrate (the two “no-substrate” control tubes had 5 j±l water added instead of peptide or protein substrate), and 30 μl distilled water into each tube. Keep the tubes on ice.
6) Add 5 μl diluted SIK to each tube, except for the two “no-enzyme” control tubes, which had 5 μl enzyme dilution buffer added, and still keeping the tubes on ice. In some cases, premixed “cocktails” of assay components were prepared containing peptide or protein substrate, assay buffer, and distilled water to limit the number of additions to each assay tube. Each of steps 7 to 14 was done behind a plexiglass shield.
7) Insert each tube into the water bath at intervals of 15 s to allow the assay mixture to reach 30° C. Begin the SIK reactions by adding 5 μl of 1 mM [γ-^32P] ATP to each tube at intervals of 15 s. Close each tube, vortex for 1 s to mix the contents and immediately replace in a rack in the water bath. Incubate for 10 min at 30° C. […]

For another assay, the system named is SGK. Description: Protein kinase assay against SGK (selectivity). It is filed as biochemical. The settings on record: DMSO set to 100%.
A further assay has as its system BMDCs. Description: Cell viability of BMDCs (CellTiter-Glo, cellular ATP). The settings on record: Mus musculus, BMDC; zymosan-stimulated BMDCs; read-out: Viability loss EC50. The assay is classed as cell-based, mouse. How it is done:
as §1
BMDCs were seeded into black 384-well plates (Corning) at 20,000 cells/well in 40 μL complete DMEM using a Multidrop COMBI (Thermal Scientific) followed by incubation at 37° C. for 2 hr to allow for plate adherence. SIK inhibitors (100 nL/well) were pin-transferred from concentrated DMSO stocks using CyBi-Well Vario (CyBio) into duplicate plates. For each treatment plate, 32 out of 384 wells were pinned with DMSO as negative control and 32 out of 384 wells were pinned with PGE2 (5 μM final concentration). Two days after SIK inhibitor treatment, BMDCs were stimulated with zymosan (4 μg/mL final concentration) dispersed in culture medium (20 μL/well) using a Multidrop COMBI. After 18 hr, 5 μL of resulting supernatant was transferred from the culture plate to white 384-well AlphaLISA plates (Perkin Elmer) using a CyBi-Well Vario. IL-10 abundance in the supernatants was determined using an AlphaLISA assay (PerkinElmer) according to the manufacture's protocol and signal intensity measured using an EnVision multimode plate reader. SIK inhibitor activity was expressed as a % of the differences between the mean abundance of IL-10 in PGE2 versus DMSO wells on a per plate basis. Cell viability assays were conducted on the same tissue culture plates as the IL-10 assay. First media was removed and replaced by solution of 50% (vol/vol) CellTiter-Glo (Promega) in PBS. Luminescence was read using an Envision multimode plate reader, and signal intensity calculated relative to DMSO control wells on a per plate basis.

In the next assay the target is T2, SIK1 (Homo sapiens, UniProt P57059).
T2 construct: made in house
T2 sequence (P57059 whole entry): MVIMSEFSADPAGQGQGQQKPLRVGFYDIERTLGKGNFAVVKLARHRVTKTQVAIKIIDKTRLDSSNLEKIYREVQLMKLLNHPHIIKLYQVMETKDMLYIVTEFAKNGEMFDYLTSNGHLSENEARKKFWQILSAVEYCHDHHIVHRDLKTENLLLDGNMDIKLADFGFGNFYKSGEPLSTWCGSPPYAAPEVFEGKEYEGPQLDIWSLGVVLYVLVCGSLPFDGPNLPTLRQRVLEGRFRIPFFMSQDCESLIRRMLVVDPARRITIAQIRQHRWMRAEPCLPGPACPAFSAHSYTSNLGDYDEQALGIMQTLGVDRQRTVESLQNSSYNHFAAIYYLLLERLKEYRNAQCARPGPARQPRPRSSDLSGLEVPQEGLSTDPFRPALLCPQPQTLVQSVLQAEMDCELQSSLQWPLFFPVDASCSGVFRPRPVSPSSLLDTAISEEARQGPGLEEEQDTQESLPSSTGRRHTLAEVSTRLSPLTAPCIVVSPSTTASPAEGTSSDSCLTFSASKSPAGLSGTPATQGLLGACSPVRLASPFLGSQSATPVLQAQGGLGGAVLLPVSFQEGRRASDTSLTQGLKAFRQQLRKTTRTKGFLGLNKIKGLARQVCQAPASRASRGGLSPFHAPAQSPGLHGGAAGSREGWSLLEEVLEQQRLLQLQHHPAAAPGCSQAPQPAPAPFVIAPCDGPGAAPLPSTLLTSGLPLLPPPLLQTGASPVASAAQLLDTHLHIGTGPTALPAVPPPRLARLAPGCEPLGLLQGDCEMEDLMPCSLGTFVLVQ
In words: Protein kinase assay ([γ-32P] ATP, phosphocellulose paper) against SIK1. The assay is classed as biochemical. As to conditions: read-out: Enzyme Inhibition IC50 SIK1. The protocol: as §1, with “Total RNA was extracted using a NucleoSpin 96 RNA isolation kit (Macherey-Nagel) followed by cDNA synthesis and multiplex RT-PCR using a microfluidic dynamic array (Fluidigm).” left out, “NO production was estimated based on nitrate content in culture medium using the Greiss reagent.” left out
In another set of experiments, the activities of the SIK inhibitors described herein against SIK were determined according to the methods reported in Hastie et al., Nature Protocols, 2006, 1, 968-971. […]
The specific activity of the [γ-^32P] […] To measure the concentration of ATP, a sample of such a stock solution was diluted to 20 μM, and the absorbance of the diluted sample was measured at 259 nm. The absorbance of a 20-μM stock solution of ATP at 259 nm was about 0.31. […] ATP to produce a radioactivity of 1×10^5 to 1×10^6 c.p.m. per nmol. […]

T1 sequence (Q9Y2K2 whole entry): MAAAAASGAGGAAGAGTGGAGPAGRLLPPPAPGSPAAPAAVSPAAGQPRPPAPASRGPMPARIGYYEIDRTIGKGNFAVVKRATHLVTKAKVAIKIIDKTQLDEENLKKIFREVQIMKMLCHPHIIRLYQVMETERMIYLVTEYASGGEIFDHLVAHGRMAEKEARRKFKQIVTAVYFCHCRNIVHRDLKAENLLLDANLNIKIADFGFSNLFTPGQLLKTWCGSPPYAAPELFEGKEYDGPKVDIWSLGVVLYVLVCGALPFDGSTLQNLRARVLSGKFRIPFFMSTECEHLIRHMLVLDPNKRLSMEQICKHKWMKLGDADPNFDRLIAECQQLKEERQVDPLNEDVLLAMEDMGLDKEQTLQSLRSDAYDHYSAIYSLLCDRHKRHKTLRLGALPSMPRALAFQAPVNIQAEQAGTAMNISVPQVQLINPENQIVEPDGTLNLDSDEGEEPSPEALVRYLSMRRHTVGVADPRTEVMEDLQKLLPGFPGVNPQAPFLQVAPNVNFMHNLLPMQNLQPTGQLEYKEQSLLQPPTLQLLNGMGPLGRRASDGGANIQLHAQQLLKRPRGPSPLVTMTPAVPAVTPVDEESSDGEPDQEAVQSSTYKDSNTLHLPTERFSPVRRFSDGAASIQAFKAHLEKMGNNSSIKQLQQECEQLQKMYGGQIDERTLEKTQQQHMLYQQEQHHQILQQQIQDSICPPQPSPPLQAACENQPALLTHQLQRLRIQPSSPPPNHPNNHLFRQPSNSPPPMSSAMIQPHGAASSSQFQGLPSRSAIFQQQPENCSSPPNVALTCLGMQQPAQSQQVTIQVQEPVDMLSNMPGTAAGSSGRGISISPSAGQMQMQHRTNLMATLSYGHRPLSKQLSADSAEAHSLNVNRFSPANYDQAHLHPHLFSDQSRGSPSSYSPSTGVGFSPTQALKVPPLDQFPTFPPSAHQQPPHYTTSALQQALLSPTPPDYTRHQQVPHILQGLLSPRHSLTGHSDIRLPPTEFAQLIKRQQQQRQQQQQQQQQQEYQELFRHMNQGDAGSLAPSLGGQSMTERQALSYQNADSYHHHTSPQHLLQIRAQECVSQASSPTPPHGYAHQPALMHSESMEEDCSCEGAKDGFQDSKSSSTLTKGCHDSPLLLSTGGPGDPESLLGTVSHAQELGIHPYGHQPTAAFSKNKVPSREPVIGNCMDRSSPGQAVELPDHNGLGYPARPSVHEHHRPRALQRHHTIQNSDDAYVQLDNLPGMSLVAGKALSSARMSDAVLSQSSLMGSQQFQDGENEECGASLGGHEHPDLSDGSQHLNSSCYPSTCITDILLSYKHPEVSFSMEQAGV

Regarding `Cc1cccc(C)c1NC(=O)N1C/C=C\COc2cccc(c2)Nc2cc1ncn2` [I-1], at SIK3, the remaining activity at 0.1 µM came out at 33%, the remaining activity at 1 µM is 13% and the IC50 came out at 89.1 nM. For the same compound, the “Activity of protein kinase treated with 0.1 μM of I-1 (% control (DMSO)) SGK” value in the assay on SGK (0.1 μM) is listed as 96 % control (DMSO). The “Activity of protein kinase treated with 1 μM of I-1 (% control (DMSO)) SGK” value in the assay with SGK (1 μM) is 100 % control (DMSO). The EC50 in the assay with BMDCs stood at 10000 nM.
`CCN1CCN(c2ccc(Nc3cc(-n4ccnc4Nc4c(C)cccc4C)ncn3)cc2)CC1` [II-1, 6-(2-((2,6-dimethylphenyl)amino)-1H-imidazol-1-yl)-N-(4-(4-ethylpiperazin-1-yl)phenyl)pyrimidin-4-amine]: the IC50 at SIK1 stood at 36.2 nM. At SIK3, the remaining activity at 0.1 µM stood at 45%, the remaining activity at 1 µM worked out at 16% and the IC50 was 120 nM. Besides, in the assay with BMDCs, the EC50 came to 19.5 nM.

The IC50 is the concentration that inhibits the measured activity by half. Broadly, the EC50 is the concentration at which the effect is half-maximal.
